The conditions of series [1]: as disclosed in co-pending application; cited from earlier work.
Series [2] can be described thus: aqueous solubility of crystalline Compound (I). The series is classed as physicochemical. Conditions: water (aqueous); crystalline material P-1. From the text:
Compound (I) exists in several different crystalline forms: P-1, P-2, P-3, and P-4. […] The present invention relates to formulations that effectively deliver Compound (I).

In brackets after ≈: the same amount, converted by molar mass.

For `COc1cnc(-n2cnc(C)n2)c2[nH]cc(C(=O)C(=O)N3CCN(C(=O)c4ccccc4)CC3)c12` [Compound (I), 1-(4-benzoyl-piperazin-1-yl)-2-[4-methoxy-7-(3-methyl-[1,2,4]triazol-1-yl)-1H-pyrrolo[2,3-c]pyridin-3-yl]-ethane-1,2-dione], the “solubility of Compound (I) in crystalline form” value in series [1] is “typically low”.

For the compound `COc1cnc(-n2cnc(C)n2)c2[nH]cc(C(=O)C(=O)N3CCN(C(=O)c4ccccc4)CC3)c12` [Sample P-1, 1-(4-benzoyl-piperazin-1-yl)-2-[4-methoxy-7-(3-methyl-[1,2,4]triazol-1-yl)-1H-pyrrolo[2,3-c]pyridin-3-yl]-ethane-1,2-dione], in series [2], the concentration in solution (solubility) came to 2.7 µg/mL (≈ 5.7 µM).

(Values after US20100292246A1, “FORMULATIONS OF 1-(4-BENZOYL-PIPERAZIN-1-YL)-2-[4-METHOXY-7-(3-METHYL-[1,2,4]TRIAZOL-1-YL)-1H-PYRROLO[2,3-C]PYRIDIN-3-YL]-ETHANE-1,2-DIONE” (Bristol-Myers Squibb Company, priority 2004, published 2010).)
